Source: article PMC12088830 (Xenobiotica; the fate of foreign compounds in biological …, 2021)

Legend:
in vitro = conditions: human
hPTECs = assay: Viability assay; type: cell-based, human
ABCB1 = assay: Gene expression; type: cell-based, human
OATP4C1 = assay: Protein expression; type: cell-based, human; conditions: for Effect on OATP4C1 protein expression: normal serum
CYP2R1 [1] = assay: Gene expression; conditions: for CYP2R1 mRNA expression compared to normal serum + VEH: normal serum 24 h; for CYP2R1 mRNA expression relative to VEH + normal serum: uraemic serum 24 h
SLCO4C1 = assay: Gene expression; type: cell-based, human; conditions: uraemic serum 24 h, then 240 nM for six days
CYP2R1 [2] = assay: Protein expression; type: cell-based, human
P-gp = assay: Protein expression; type: cell-based, human; conditions: 240 nM for six days
CYP24A1 [3] = conditions: HepG2 cells; 4 nM dose; ref Horvath et al 2012; cited from earlier work
P-gp and MRP4 = conditions: Caco-2 cells; 3 day treatment, 100 nM; ref Maeng et al 2012; cited from earlier work
CYP24A1 [4] = assay: Gene expression
[5] = normal serum 24 h, then 100 nM for six days
[6] = normal serum 24 h, then 240 nM for six days
[7] = uraemic serum 24 h, then 100 nM for six days

C[C@H]1O[C@@H](O[C@H]2[C@@H](O)C[C@H](O[C@H]3[C@@H](O)C[C@H](O[C@H]4CC[C@@]5(C)[C@H](CC[C@@H]6[C@@H]5C[C@@H](O)[C@]5(C)[C@@H](C7=CC(=O)OC7)CC[C@]65O)C4)O[C@@H]3C)O[C@@H]2C)C[C@H](O)[C@@H]1O [[^3H]digoxin, digoxin]
Digoxin transport in the B→A direction (hPTEC monolayer; one hour post digoxin dosing, normal serum + VEH): 29.9 ± 2.4%
Papp A→B at 33.5 μM (in vitro): 3.9 ± 0.14 ×10⁻⁶ cm/s
Papp A→B at 6 h, 33.5 μM (in vitro): 4.1 ± 0.27 ×10⁻⁶ cm/s

C=C1CC[C@H](O)C/C1=C/C=C1\CCC[C@]2(C)[C@@H]([C@H](C)CCCC(C)C)CC[C@@H]12 [VitD3, cholecalciferol]
Effect on cell viability (hPTECs; normal or uraemic serum, 100 or 240 nM for six days): no significant effects
Effect on ABCB1 mRNA expression (ABCB1; 100 or 240 nM for six days, normal or uraemic serum): no effect
Effect on OATP4C1 protein expression (OATP4C1; 240 nM for six days): no effect
Increase in CYP2R1 mRNA expression under uraemic conditions compared to normal serum (same treatment) (CYP2R1 [1]; 100 nM for six days): 45%
CYP2R1 mRNA expression compared to normal serum + VEH (CYP2R1 [1]; then 240 nM for six days): 3.6 fold
CYP2R1 mRNA expression relative to VEH + normal serum (CYP2R1 [1]; then 100 nM for six days): 3.1 fold

C=C1/C(=C\C=C2/CCC[C@]3(C)[C@@H]([C@H](C)CCCC(C)(C)O)CC[C@@H]23)C[C@@H](O)C[C@@H]1O [1,25-VitD3, calcitriol]
Effect on increasing cell viability relative to VEH (hPTECs; uraemic serum 24 h pre-treatment, then 100 nM and 240 nM for six days): no significant effects
ABCB1 mRNA expression compared to normal serum + VEH (ABCB1; [5]): 8.8 fold
ABCB1 mRNA expression compared to normal serum + VEH (ABCB1; [6]): 7.6 fold
ABCB1 mRNA expression compared to normal serum + VEH (ABCB1; [7]): 10 fold
SLCO4C1 mRNA expression compared to normal serum + VEH (SLCO4C1): 3.3 fold
Decrease in CYP2R1 protein expression under uraemic conditions compared to the same treatment with normal serum (CYP2R1 [2]; 100 nM for six days): 38%
Decrease in CYP2R1 protein expression under uraemic conditions compared to the same treatment with normal serum (CYP2R1 [2]; 240 nM for six days): 64%
Increase in P-gp protein expression with uraemic serum compared to the same treatment with normal serum (P-gp): 1.44 fold
Decrease in OATP4C1 protein expression relative to normal serum + VEH (OATP4C1; 240 nM for six days): 54%
Effect on OATP4C1 protein expression (OATP4C1; 100 nM for six days): no effect
Effect on efflux ratio of [3H]digoxin (hPTEC monolayer; 240 nM for six days, normal or uraemic serum): did not have a significant effect
CYP24A1 expression increase (CYP24A1 [3]): 5,300 fold
Effect on P-gp and MRP4 transport activity (basolateral to apical transport of adefovir dipivoxil) (P-gp and MRP4): Increased P-gp and MRP4 transport activity
CYP2R1 mRNA expression compared to normal serum + VEH (CYP2R1 [1]; then 240 nM for six days): 4.7 fold
CYP2R1 mRNA expression relative to VEH + normal serum (CYP2R1 [1]; then 100 nM for six days): 4.8 fold
CYP2R1 mRNA expression relative to VEH + normal serum (CYP2R1 [1]; then 240 nM for six days): 4.0 fold
CYP24A1 mRNA expression compared to normal serum + VEH (CYP24A1 [4]; [5]): 8706 fold
CYP24A1 mRNA expression compared to normal serum + VEH (CYP24A1 [4]; [6]): 9483 fold
CYP24A1 mRNA expression compared to normal serum + VEH (CYP24A1 [4]; [7]): 4967 fold
CYP24A1 mRNA expression compared to normal serum + VEH (CYP24A1 [4]; uraemic serum 24 h, then 240 nM for six days): 5343 fold
